This note sets out measurements from ChEMBL document CHEMBL1145242, “EB1627: a soluble prodrug of the potent anticancer cyanoguanidine CHS828” (Bioorg Med Chem Lett, 2005).

Values after ≈ are worked out from the molar mass of the structure shown. Bounds are passed on as bounds.

Data set [1] is described as follows: Inhibition of NYH Cell line. It counts as functional, cell-based. Particulars: Homo sapiens.
The nature of data set [2]: Solubility at pH-5.5. The data set is classed as physicochemical.
Data set [3] can be described thus: Half life value in human serum. It counts as ADME, cell-free.
Data set [4] is described as follows: Solubility at pH-7.4. It counts as physicochemical.
The nature of data set [5]: Half life value at pH-7.4. The data set is classed as ADME.

For `CC(C)[C@@H](N)C(=O)OC[n+]1ccc(N/C(=N/CCCCCCOc2ccc(Cl)cc2)NC#N)cc1`, the IC50 in data set [1] was 5.01 nM.

As to `COCCOCCOC(=O)OC[n+]1ccc(N/C(=N/CCCCCCOc2ccc(Cl)cc2)NC#N)cc1.[Cl-]`, the solubility was 34 µg/mL in data set [2] and 14 µg/mL in data set [4]. Moreover, the values for the half-life in data set [3] and in data set [5] were 27 min and above 240 min, respectively. The compound further showed an IC50 in data set [1] of 0.631 nM.

With `Cl.N#CN/C(=N\CCCCCCOc1ccc(Cl)cc1)Nc1cc[n+](COC(=O)NCCCN)cc1.[Cl-]`, the solubility in data set [2] was above 1200 µg/mL; in data set [4], 250 µg/mL. Further, the half-life in data set [3] and in data set [5] was above 240 min in each case. In data set [1], this compound showed an IC50 of 15.8 nM.

`N#CN=C(NCCCCCCOc1ccc(Cl)cc1)Nc1ccncc1` [CHS-828]: the solubility is 2 µg/mL (≈ 5.38 µM) in data set [2] and 0.5 µg/mL (≈ 1.34 µM) in data set [4]. Further, the IC50 in data set [1] was 0.501 nM.

For the compound `Cl.N#CN/C(=N\CCCCCCOc1ccc(Cl)cc1)Nc1cc[n+](COC(=O)OCCCCCCCCCN)cc1.[Cl-]`, the values for the solubility in data set [2] and in data set [4] were above 1200 µg/mL and 38 µg/mL, respectively. Besides, the half-life in data set [3] is 15 min; in data set [5] it was above 240 min. Moreover, the IC50 in data set [1] was 0.398 nM.

On to `COCCOCCOCCOC(=O)OC[n+]1ccc(N/C(=N/CCCCCCOc2ccc(Cl)cc2)NC#N)cc1.[Cl-]`, for which the solubility in data set [2] amounted to 1200 µg/mL; in data set [4] it was 83 µg/mL. The half-life was 30 min in data set [3] and above 240 min in data set [5]. This compound gave an IC50 in data set [1] of 0.501 nM.

For the compound `COCCOCCOCCOCCOC(=O)OC[n+]1ccc(N/C(=N/C#N)NCCCCCCOc2ccc(Cl)cc2)cc1.[Cl-]` [TEGLARINAD CHLORIDE], the results for the solubility in data set [2] and in data set [4] were above 1200 µg/mL and 120 µg/mL, respectively. In addition, the results for the half-life in data set [3] and in data set [5] were 25 min and above 240 min, respectively. Besides, it took 0.794 nM to reach half-maximal inhibition in data set [1] (IC50).
